Converted amounts (≈) assume the structure as drawn. Read-outs that look alike come from different tables or passages of the source.
Legend:
[1] = system: Pseudomonas aeruginosa ATCC 27853; assay: In-vitro antibacterial activity (MIC), two-fold dilution method; type: cell-based; settings: read-out: minimal inhibitory concentration (MIC)
Description: (§1) In-vitro antibacterial activity was determined by the two-fold dilution method as described below. 2 μl of the test microorganism which has the 10^7 CFU per ml was inoculated on the Muller-Hinton agar which has been dispersed by the test compound, and was incubated at 37° C. for 20 hours.

[2] = system: Pseudomonas aeruginosa ATCC 25619; assay: as above; type: cell-based; settings: read-out: minimal inhibitory concentration (MIC)
Description: as §1

[3] = system: Enterobacter aerogenes ATCC 29751; assay: as above; type: cell-based; settings: Klebsiella aerogenes, read-out: minimal inhibitory concentration (MIC)
Description: as §1

[4] = system: Klebsiella pneumoniae ATCC 10031; assay: as above; type: cell-based; settings: read-out: minimal inhibitory concentration (MIC)
Description: as §1

[5] = system: Bacillus subtilis ATCC 6633; assay: as above; type: cell-based; settings: read-out: minimal inhibitory concentration (MIC)
Description: as §1

[6] = system: Staphylococcus aureus ATCC 10537; assay: as above; type: cell-based; settings: read-out: minimal inhibitory concentration (MIC)
Description: as §1

[7] = system: Escherichia coli ATCC 10536; assay: as above; type: cell-based; settings: read-out: minimal inhibitory concentration (MIC)
Description: as §1

[8] = system: Proteus mirabilis ATCC 25933; assay: as above; type: cell-based; settings: read-out: minimal inhibitory concentration (MIC)
Description: as §1

[9] = system: Pseudomonas aeruginosa ATCC 10145; assay: as above; type: cell-based; settings: read-out: minimal inhibitory concentration (MIC)
Description: as §1

[10] = system: Salmonella typhimurium ATCC 14028; assay: as above; type: cell-based; settings: Salmonella enterica, read-out: minimal inhibitory concentration (MIC)
Description: as §1

[11] = system: Serratia marcescens ATCC 27117; assay: as above; type: cell-based; settings: read-out: minimal inhibitory concentration (MIC)
Description: as §1

[12] = system: gram-negative bacteria including Pseudomonas aeruginosa; assay: In-vitro antibacterial activity, comparison over gram-negative bacteria; type: cell-based; settings: from Table 1
Description: as §1

[13] = system: gram-positive bacteria, especially, Staphylococcus aureus and Bacillus subtilis; assay: In-vitro antibacterial activity, comparison over gram-positive bacteria; type: cell-based; settings: from Table 1
Description: as §1

[14] = rat (SD), i.v. 20 mg/kg, II Compartment; cited from earlier work
[15] = dog (Beagle), i.v. 20 mg/kg, II Compartment; cited from earlier work
[16] = monkey (Rhesus), i.v. 20 mg/kg, II Compartment; cited from earlier work
[17] = Pharmacokinetics of compound (Ib) in rat, intravenous, plasma by HPLC; type: in vivo, rat (Fischer); settings: for half-life: rat, 14.29 mg/kg
Description: The pharmacokinetics of the invented compound (Ib) was studied in rat (Fischer, 6~10 weeks). The compound (Ib) was dissolved in phosphate bupper solution(0.05M; pH=9) and intraveneouly administered in a dose of 14.29 mg/kg to four rats, and blood samples from the rats were taken at 1, 5, 10 and 30 mins and 1, 2, 3, 5 and 7 hours after administration of the compound (Ib), respectively.
The concentrations in plasma were measured by HPLC analysis of blood samples, and the results of average concentrations in plasma were listed in Table 2.

[18] = ATCC27853, Pseudomonas aeruginosa ATCC 27853, Muller-Hinton agar, 37° C., 20 hours
[19] = ATCC25619, Pseudomonas aeruginosa ATCC 25619, Muller-Hinton agar, 37° C., 20 hours
[20] = ATCC29751, Enterobacter aerogenes ATCC 29751, Muller-Hinton agar, 37° C., 20 hours
[21] = ATCC10031, Klebsiella pneumoniae ATCC 10031, Muller-Hinton agar, 37° C., 20 hours
[22] = Bacillus subtilis, ATCC6633, 20 h
[23] = Staphylococcus aureus, ATCC10537, 20 h
[24] = ATCC10536, Escherichia coli ATCC 10536, Muller-Hinton agar, 37° C., 20 hours
[25] = ATCC25933, Proteus mirabilis ATCC 25933, Muller-Hinton agar, 37° C., 20 hours
[26] = ATCC10145, Pseudomonas aeruginosa ATCC 10145, Muller-Hinton agar, 37° C., 20 hours
[27] = Salmonella typhimurium ATCC 14028, Muller-Hinton agar, 37° C., 20 hours
[28] = ATCC27117, Serratia marcescens ATCC 27117, Muller-Hinton agar, 37° C., 20 hours
[29] = ATCC6633, Bacillus subtilis ATCC 6633, Muller-Hinton agar, 37° C., 20 hours
[30] = ATCC10537, Staphylococcus aureus ATCC 10537, Muller-Hinton agar, 37° C., 20 hours
[31] = Pseudomonas aeruginosa, ATCC10145, 20 h

Row | SMILES | MIC [1, 18] [µg/mL] | MIC [2, 19] [µg/mL] | MIC [3, 20] [µg/mL] | MIC [4, 21] [µg/mL] | MIC [5, 22] [µg/mL] | MIC [6, 23] [µg/mL] | MIC [7, 24] [µg/mL] | MIC [8, 25] [µg/mL] | MIC [9, 26] [µg/mL] | MIC [10, 27] [µg/mL] | MIC [11, 28] [µg/mL] | activity against gram-negative bacteria as compared with ceftazidime and moxalactam [12] | activity against gram-positive bacteria as compared with ceftazidime and moxalactam [13] | also measured
1 | CC(=O)OCC1=C(C(=O)O)N2C(=O)C(NC(=O)/C(=N\OCc3ccco3)c3csc(N)n3)C2SC1 (centres unmarked) [(Ia), 7-[(Z)-2-(2-Aminothiazol-4-yl)-2-(2-furfuryl-oxyimino)acetamido]-3-acetoxymethyl-3-cephem-4-carboxylic acid] | 16 (≈ 30.7 µM) | 1 (≈ 1.92 µM) | 16 (≈ 30.7 µM) | < 0.0312 | 0.5 (≈ 0.959 µM) | 1 (≈ 1.92 µM) | 0.5 (≈ 0.959 µM) | 0.125 (≈ 0.24 µM) | 16 (≈ 30.7 µM) | 2 (≈ 3.83 µM) | 1 (≈ 1.92 µM) | almost equally active | superior antimicrobiral activities | 
2 | Cn1nnnc1SCC1=C(C(=O)O)N2C(=O)C(NC(=O)/C(=N\OCc3ccco3)c3csc(N)n3)C2SC1 (centres unmarked) [(Ic), Sodium 7-[(Z)-2-(2-aminothiazol-4-yl)-2-(2-furfuryloxyimino)-acetamido]-3-[(1-methyl-1H-tetrazol-5-yl)thiomethyl]-3-cephem-4-carboxylate] | 16 | 1 | 8 | < 0.0315 |  |  | 0.5 | 0.25 | 16 | 2 | 1 | almost equally active | superior antimicrobiral activities | MIC [5, 29]: 0.5 µg/mL; MIC [6, 30]: 1 µg/mL
3 | CO/N=C(\C(=O)N[C@@H]1C(=O)N2C(C(=O)O)=C(COC(C)=O)CS[C@H]12)c1csc(N)n1 [Cefotaxime] |  |  |  |  |  |  |  |  |  |  |  |  |  | AUC [14]: 13500 ng·h/mL; T1/2 (α) [14]: 4.55 min; T1/2 (β) [14]: 14.8 min
4 | CC(C)(O/N=C(\C(=O)N[C@@H]1C(=O)N2C(C(=O)[O-])=C(C[n+]3ccccc3)CS[C@H]12)c1csc(N)n1)C(=O)O [Ceftazidime, reference compound] |  |  |  |  | 16 (≈ 29.3 µM) | 4 (≈ 7.32 µM) |  |  |  |  |  |  |  | MIC ([1]; Pseudomonas aeruginosa, ATCC27853, 20 h): 2 µg/mL (≈ 3.66 µM); MIC ([2]; Pseudomonas aeruginosa, ATCC25619, 20 h): 1 µg/mL (≈ 1.83 µM); MIC ([3]; ATCC29751, 20 h): 4 µg/mL (≈ 7.32 µM); MIC ([4]; Klebsiella pneumoniae, ATCC10031, 20 h): 0.125 µg/mL (≈ 0.229 µM); MIC ([7]; Escherichia coli, ATCC10536, 20 h): 0.125 µg/mL (≈ 0.229 µM); MIC ([8]; Proteus mirabilis, ATCC25933, 20 h): 0.0625 µg/mL (≈ 0.114 µM); MIC [9, 31]: 2 µg/mL (≈ 3.66 µM); MIC ([10]; 20 h): 0.25 µg/mL (≈ 0.457 µM); MIC ([11]; Serratia marcescens, ATCC27117, 20 h): 0.0625 µg/mL (≈ 0.114 µM); AUC [15]: 93000 ng·h/mL
5 | CO/N=C(\C(=O)N[C@@H]1C(=O)N2C(C(=O)O)=C(CSc3nc(=O)c(=O)[nH]n3C)CS[C@H]12)c1csc(N)n1 [Ceftriaxone] |  |  |  |  |  |  |  |  |  |  |  |  |  | AUC [15]: 84300 ng·h/mL; T1/2 (α) [15]: 6.80 min; T1/2 (β) [15]: 50.7 min; AUC [16]: 838000 ng·h/mL; T1/2 (α) [16]: 23.16 min; T1/2 (β) [16]: 204 min
6 | Nc1nc(/C(=N/OCc2ccco2)C(=O)NC2C(=O)N3C(C(=O)[O-])=C(C[n+]4ccccc4)CSC23)cs1 (centres unmarked) [Compound (Ib), 7-[(Z)-2-(2-Aminothiazol-4-yl)-2-(2-furfuryl-oxyimino)acetamido]-3-(1-pyridiniummethyl)-3-cephem-4-carboxylate] | 8 (≈ 14.8 µM) | 1 (≈ 1.85 µM) | 4 (≈ 7.4 µM) | 0.0625 (≈ 0.116 µM) |  | 0.25 (≈ 0.462 µM) | 0.5 (≈ 0.925 µM) | 0.5 (≈ 0.925 µM) | 8 (≈ 14.8 µM) | 2 (≈ 3.7 µM) | 0.5 (≈ 0.925 µM) | almost equally active | superior antimicrobiral activities | MIC [5, 29]: 0.25 µg/mL (≈ 0.462 µM); AUC ratio to cefotaxime ([17]; Ib in rat vs cefotaxime in rat): 6.5 times; T1/2 (β) ratio to cefotaxime in rat ([17]; Ib in rat vs cefotaxime in rat): 6.4 times; T1/2 (β) ratio to ceftazidime or ceftriaxone in dog ([17]; Ib in rat vs ceftazidime or ceftriaxone in dog): 1.9 times; AUC ([17]; plasma, iv, rat (Fischer), i.v. 14.29 mg/kg, II Compartment): 62400 ng·h/mL; concentration at 1 min ([17]; plasma, iv, rat (Fischer), i.v. 14.29 mg/kg, average of four rats, 1 min): 112000 ng/mL; concentration at 5 min ([17]; plasma, iv, rat (Fischer), i.v. 14.29 mg/kg, average of four rats, 5 min): 60600 ng/mL; concentration at 10 min ([17]; plasma, iv, rat (Fischer), i.v. 14.29 mg/kg, average of four rats, 10 min): 43000 ng/mL; concentration at 0.5 h ([17]; plasma, iv, rat (Fischer), i.v. 14.29 mg/kg, average of four rats, 30 min): 20700 ng/mL; concentration at 1 h ([17]; plasma, iv, rat (Fischer), i.v. 14.29 mg/kg, average of four rats, 1 hr): 12600 ng/mL; concentration at 2 h ([17]; plasma, iv, rat (Fischer), i.v. 14.29 mg/kg, average of four rats, 2 hr): 6100 ng/mL; concentration at 3 h ([17]; plasma, iv, rat (Fischer), i.v. 14.29 mg/kg, average of four rats, 3 hr): 4300 ng/mL; concentration at 5 h ([17]; plasma, iv, rat (Fischer), i.v. 14.29 mg/kg, average of four rats, 5 hr): 1600 ng/mL; concentration at 7 h ([17]; plasma, iv, rat (Fischer), i.v. 14.29 mg/kg, average of four rats, 7 hr): 900 ng/mL; half-life ([17]; plasma, iv, rat (Fischer), i.v. 14.29 mg/kg, II Compartment, read-out: T1/2 (α)): 6.21 min; half-life ([17]; plasma, iv, rat (Fischer), i.v. 14.29 mg/kg, II Compartment, read-out: T1/2 (β)): 95 min
7 | CO[C@@]1(NC(=O)C(C(=O)O)c2ccc(O)cc2)C(=O)N2C(C(=O)O)=C(CSc3nnnn3C)CO[C@@H]21 (some centres unmarked) [Moxalactam, reference compound] | 16 (≈ 30.7 µM) | 8 (≈ 15.4 µM) | 1 (≈ 1.92 µM) | 0.25 (≈ 0.48 µM) | 8 (≈ 15.4 µM) |  | 0.125 (≈ 0.24 µM) | 0.25 (≈ 0.48 µM) |  | 0.25 (≈ 0.48 µM) | 0.125 (≈ 0.24 µM) |  |  | MIC [6, 30]: 4 µg/mL (≈ 7.69 µM); MIC [9, 31]: 32 µg/mL (≈ 61.5 µM)

— patent US4971962A, “Cephalosporin compounds” (Lucky, Ltd., priority 1988, dated 1990)
